From BigSolDB 2.1

O=C(CN1C(=O)S/C(=C\c2ccc(Cl)cc2)C1=O)N1CCN(CC(O)(Cn2cncn2)c2cc(F)ccc2F)CC1 (stereo not given)
solubility (mole fraction)
Settings	293.15 K	298.15 K	303.15 K	308.15 K	313.15 K
in ethanol	0.000161	0.0002	0.000254	0.000312	0.000377
in n-hexane	2.34e-06	3.14e-06	4.1e-06	5.16e-06	6.28e-06
in n-octanol	0.00047	0.000578	0.000723	0.000882	0.00115
